# Assay results from patent US12383545B1, “Treatment of migraine” (priority 2018, dated 2025).
# Test system: patients with migraine (4 to 14 migraine/probable migraine headache days)
# Assay: Example 5: randomized double-blind placebo-controlled 12-week dose-regimen study (QD and BID), migraine/probable migraine (MPM) headache days efficacy
# Assay type: in vivo, human
# Details: for At Least 50% Reduction in Mean Monthly MPM Headache Days, Non-responders / At Least 50% Reduction in Mean Monthly MPM Headache Days, Odds ratio vs. Placebo / At Least 50% Reduction in Mean Monthly MPM Headache Days, Responders / Change from Baseline in Mean Monthly Acute Medication Use Days, CFB MMRM LS Mean / Change from Baseline in Mean Monthly Acute Medication Use Days, CGP vs. Placebo LSMD / Change from Baseline in Mean Monthly Headache Days, CFB MMRM LS Mean / Change from Baseline in Mean Monthly Headache Days, CGP vs. Placebo LSMD / Change from Baseline in Mean Monthly MPM Headache Days, CFB MMRM LS Mean / Change from Baseline in Mean Monthly MPM Headache Days, CGP vs. Placebo LSMD: across the 12-Week Treatment Period, mITT Population; for Non-responders (at least 100% reduction in mean monthly MPM headache days not met), (%) / Non-responders (at least 100% reduction in mean monthly MPM headache days not met), n / Odds ratio vs. Placebo, at least 100% reduction in mean monthly MPM headache days / Responders (at least 100% reduction in mean monthly MPM headache days), (%) / Responders (at least 100% reduction in mean monthly MPM headache days), n: Weeks 1-4, mITT population
# Description: In a multicenter, randomized, double-blind, placebo-controlled, parallel-group study designed to evaluate the efficacy, safety, and tolerability of multiple doses and doses regimens of atogepant for the prevention of migraine. The patients were randomized (2:1:2:1:2:1) to 1 of 6 treatment groups: placebo, atogepant 10 mg QD, atogepant 30 mg QD, atogepant 30 mg BID, atogepant 60 mg QD, and atogepant 60 mg BID.
# This study consisted of a 4-week screening and baseline period and a 12-week double-blind treatment period, which was followed by a 4-week safety follow-up period. Total study duration is 20-weeks.
# To be randomized, eligible patients had to be 18 to 75 years of age (inclusive), have a history of migraine with or without aura for at least 1 year consistent with a diagnosis according to the International Classification of Headache Disorders criteria, 3rd edition, beta version, have experienced 4 to 14 migraine/probable migraine headache days and <15 headache days in the 28-day baseline period. Patients who had clinically significant hematologic, endocrine, cardiovascular, cerebrovascular, pulmonary, renal, hepatic, gastrointestinal, or neurologic disease were excluded from the study.
# A total of 834 patients were randomized to double-blind treatment (ITT population), and 825 patients took at least 1 dose of double-blind IP (safety population). […] The primary efficacy variable was the change from baseline in mean monthly migraine/probable migraine headache days across the 12-week treatment period. The secondary efficacy variables were the change from baseline in mean monthly headache days across the 12-week treatment period, proportion of patients with at least a 50% reduction in mean monthly migraine/probable migraine headache days across the 12-week treatment period, and the change from baseline in mean monthly acute medication use days across the 12-week treatment period.
smiles,measurement,setting,value
C[C@@H]1[C@H](c2c(F)ccc(F)c2F)C[C@H](NC(=O)c2cnc3c(c2)C[C@@]2(C3)C(=O)Nc3ncccc32)C(=O)N1CC(F)(F)F [atogepant],"At Least 50% Reduction in Mean Monthly MPM Headache Days, Non-responders",Atogepant 10 mg QD,39 (42.4) n (%)
same,"At Least 50% Reduction in Mean Monthly MPM Headache Days, Odds ratio vs. Placebo",Atogepant 10 mg QD,1.50
same,"At Least 50% Reduction in Mean Monthly MPM Headache Days, Responders",Atogepant 10 mg QD,53 (57.6) n (%)
same,"Change from Baseline in Mean Monthly Acute Medication Use Days, CFB MMRM LS Mean",Atogepant 10 mg QD,-3.71 days
same,"Change from Baseline in Mean Monthly Acute Medication Use Days, CGP vs. Placebo LSMD",Atogepant 10 mg QD,-1.30 days
same,"Change from Baseline in Mean Monthly Headache Days, CFB MMRM LS Mean",Atogepant 10 mg QD,-4.31 days
same,"Change from Baseline in Mean Monthly Headache Days, CGP vs. Placebo LSMD",Atogepant 10 mg QD,-1.38 days
same,"Change from Baseline in Mean Monthly MPM Headache Days, CFB MMRM LS Mean",Atogepant 10 mg QD,-4.00 days
same,"Change from Baseline in Mean Monthly MPM Headache Days, CGP vs. Placebo LSMD",Atogepant 10 mg QD,-1.15 days
same,"At Least 50% Reduction in Mean Monthly MPM Headache Days, Non-responders",Atogepant 30 mg BID,33 (41.8) n (%)
same,"At Least 50% Reduction in Mean Monthly MPM Headache Days, Odds ratio vs. Placebo",Atogepant 30 mg BID,1.83
same,"At Least 50% Reduction in Mean Monthly MPM Headache Days, Responders",Atogepant 30 mg BID,46 (58.2) n (%)
same,"Change from Baseline in Mean Monthly Acute Medication Use Days, CFB MMRM LS Mean",Atogepant 30 mg BID,-3.77 days
same,"Change from Baseline in Mean Monthly Acute Medication Use Days, CGP vs. Placebo LSMD",Atogepant 30 mg BID,-1.35 days
same,"Change from Baseline in Mean Monthly Headache Days, CFB MMRM LS Mean",Atogepant 30 mg BID,-4.23 days
same,"Change from Baseline in Mean Monthly Headache Days, CGP vs. Placebo LSMD",Atogepant 30 mg BID,-1.30 days
same,"Change from Baseline in Mean Monthly MPM Headache Days, CFB MMRM LS Mean",Atogepant 30 mg BID,-4.23 days
same,"Change from Baseline in Mean Monthly MPM Headache Days, CGP vs. Placebo LSMD",Atogepant 30 mg BID,-1.39 days
same,"At Least 50% Reduction in Mean Monthly MPM Headache Days, Non-responders",Atogepant 30 mg QD,85 (46.7) n (%)
same,"At Least 50% Reduction in Mean Monthly MPM Headache Days, Odds ratio vs. Placebo",Atogepant 30 mg QD,1.46
same,"At Least 50% Reduction in Mean Monthly MPM Headache Days, Responders",Atogepant 30 mg QD,97 (53.3) n (%)
same,"Change from Baseline in Mean Monthly Acute Medication Use Days, CFB MMRM LS Mean",Atogepant 30 mg QD,-3.86 days
same,"Change from Baseline in Mean Monthly Acute Medication Use Days, CGP vs. Placebo LSMD",Atogepant 30 mg QD,-1.44 days
same,"Change from Baseline in Mean Monthly Headache Days, CFB MMRM LS Mean",Atogepant 30 mg QD,-4.17 days
same,"Change from Baseline in Mean Monthly Headache Days, CGP vs. Placebo LSMD",Atogepant 30 mg QD,-1.24 days
same,"Change from Baseline in Mean Monthly MPM Headache Days, CFB MMRM LS Mean",Atogepant 30 mg QD,-3.76 days
same,"Change from Baseline in Mean Monthly MPM Headache Days, CGP vs. Placebo LSMD",Atogepant 30 mg QD,-0.91 days
same,"At Least 50% Reduction in Mean Monthly MPM Headache Days, Non-responders",Atogepant 60 mg BID,33 (37.9) n (%)
same,"At Least 50% Reduction in Mean Monthly MPM Headache Days, Odds ratio vs. Placebo",Atogepant 60 mg BID,2.03
same,"At Least 50% Reduction in Mean Monthly MPM Headache Days, Responders",Atogepant 60 mg BID,54 (62.1) n (%)
same,"Change from Baseline in Mean Monthly Acute Medication Use Days, CFB MMRM LS Mean",Atogepant 60 mg BID,-3.64 days
same,"Change from Baseline in Mean Monthly Acute Medication Use Days, CGP vs. Placebo LSMD",Atogepant 60 mg BID,-1.22 days
same,"Change from Baseline in Mean Monthly Headache Days, CFB MMRM LS Mean",Atogepant 60 mg BID,-4.32 days
same,"Change from Baseline in Mean Monthly Headache Days, CGP vs. Placebo LSMD",Atogepant 60 mg BID,-1.39 days
same,"Change from Baseline in Mean Monthly MPM Headache Days, CFB MMRM LS Mean",Atogepant 60 mg BID,-4.14 days
same,"Change from Baseline in Mean Monthly MPM Headache Days, CGP vs. Placebo LSMD",Atogepant 60 mg BID,-1.29 days
same,"At Least 50% Reduction in Mean Monthly MPM Headache Days, Non-responders",Atogepant 60 mg QD,85 (48.0) n (%)
same,"At Least 50% Reduction in Mean Monthly MPM Headache Days, Odds ratio vs. Placebo",Atogepant 60 mg QD,1.42
same,"At Least 50% Reduction in Mean Monthly MPM Headache Days, Responders",Atogepant 60 mg QD,92 (52.0) n (%)
same,"Change from Baseline in Mean Monthly Acute Medication Use Days, CFB MMRM LS Mean",Atogepant 60 mg QD,-3.53 days
same,"Change from Baseline in Mean Monthly Acute Medication Use Days, CGP vs. Placebo LSMD",Atogepant 60 mg QD,-1.11 days
same,"Change from Baseline in Mean Monthly Headache Days, CFB MMRM LS Mean",Atogepant 60 mg QD,-3.86 days
same,"Change from Baseline in Mean Monthly Headache Days, CGP vs. Placebo LSMD",Atogepant 60 mg QD,-0.94 days
same,"Change from Baseline in Mean Monthly MPM Headache Days, CFB MMRM LS Mean",Atogepant 60 mg QD,-3.55 days
same,"Change from Baseline in Mean Monthly MPM Headache Days, CGP vs. Placebo LSMD",Atogepant 60 mg QD,-0.70 days
same,"Non-responders (at least 100% reduction in mean monthly MPM headache days not met), (%)",Atogepant 10 mg QD (N = 92),(81.5) %
same,"Non-responders (at least 100% reduction in mean monthly MPM headache days not met), n",Atogepant 10 mg QD (N = 92),75
same,"Odds ratio vs. Placebo, at least 100% reduction in mean monthly MPM headache days",Atogepant 10 mg QD (N = 92),6.39
same,"Responders (at least 100% reduction in mean monthly MPM headache days), (%)",Atogepant 10 mg QD (N = 92),(18.5) %
same,"Responders (at least 100% reduction in mean monthly MPM headache days), n",Atogepant 10 mg QD (N = 92),17
same,"Non-responders (at least 100% reduction in mean monthly MPM headache days not met), (%)",Atogepant 30 mg BID (N = 79),(83.5) %
same,"Non-responders (at least 100% reduction in mean monthly MPM headache days not met), n",Atogepant 30 mg BID (N = 79),66
same,"Odds ratio vs. Placebo, at least 100% reduction in mean monthly MPM headache days",Atogepant 30 mg BID (N = 79),5.23
same,"Responders (at least 100% reduction in mean monthly MPM headache days), (%)",Atogepant 30 mg BID (N = 79),(16.5) %
same,"Responders (at least 100% reduction in mean monthly MPM headache days), n",Atogepant 30 mg BID (N = 79),13
same,"Non-responders (at least 100% reduction in mean monthly MPM headache days not met), (%)",Atogepant 30 mg QD (N = 182),(80.2) %
same,"Non-responders (at least 100% reduction in mean monthly MPM headache days not met), n",Atogepant 30 mg QD (N = 182),146
same,"Odds ratio vs. Placebo, at least 100% reduction in mean monthly MPM headache days",Atogepant 30 mg QD (N = 182),7.05
same,"Responders (at least 100% reduction in mean monthly MPM headache days), (%)",Atogepant 30 mg QD (N = 182),(19.8) %
same,"Responders (at least 100% reduction in mean monthly MPM headache days), n",Atogepant 30 mg QD (N = 182),36
